Experiment: Determination of GC-odour threshold concentration (gas chromatograph with sniff port, panel of trained evaluators)
Details: for odour threshold concentration, geometric mean: GC sniff port, absolute amount of compound delivered at the sniff port, group of 5 panelists, identical conditions; for odour threshold of the (Z)-isomer compared to its corresponding (E)-isomer (times higher): pure (Z)-isomer versus pure (E)-isomer
Method: The odour threshold concentration is defined as the lowest concentration of the vapour of an odourant material in the air which can be detected by smell and can be measured by standard methods known in the art.
According to standard procedures known to the person skilled in the art, threshold concentrations for volatile perfumery compounds are determined on a gas chromatograph equipped with a sniff port by a panel of trained evaluators. The lowest concentration smelled by each panellist is recorded as the individual threshold concentration expressed in ng (absolute amount of compound delivered at the sniff port).
Under identical conditions the odour threshold concentration for (E)-2-methyl-4-dodecenal (prior art), (E)-3-methyl-4-dodecenal and (E)-4-methyl-4-dodecenal was measured and compared by a group of 5 panelists.

SMILES	odour threshold concentration, geometric mean [ng]	odour threshold of the (Z)-isomer compared to its corresponding (E)-isomer (times higher) [times]
CCCCCCC/C=C(\C)CCC=O [(E)-4-methyl-4-dodecenal, (E)-4-Methyl-4-dodecenal]	0.05	
CCCCCCC/C=C\C(C)CC=O (centres unmarked) [(Z)-3-methyl-4-dodecenal]		5
CCCCCCC/C=C(/C)CCC=O [(Z)-4-methyl-4-dodecenal, (Z)-4-Methyl-4-dodecenal]		20
CCCCCCC/C=C/C(C)CC=O (centres unmarked) [(E)-3-methyl-4-dodecenal]	1.0	
CCCCCCC/C=C/CC(C)C=O (centres unmarked) [(E)-2-methyl-4-dodecenal, reference compound]	3.2	
